Experimental data published in patent US9045506B2, “Diphosphonate compound and a method for preparing the same and an application of the same” (Chengdu Yunke Pharmaceutical Co., Ltd., priority 2010, dated 2015).
Marks after values point to notes of the source that are not given here.

Tests used:
[1] = tested on: osteoblasts; assay: Calcium deposition assay (alizarin red method); type: cell-based; settings: for calcium deposition of osteoblasts (in words): lower / low concentration; for ARS concentration / calcium nodule size: 5 d, n = 4, x ± s
Description: Next, each well is added with 1 mL extract (extract preparation: 800 mL 10% acetic acid with 200 mL anhydrous ethyl alcohol), and extracted for 30 min-45 min, kept in dark, shaken slightly, the absorbance of 450 nm wavelength is measured and recorded. […] As alizarin red S and calcium are linear correlated, the calcium deposition is evaluated according to the alizarin red S concentration.

[2] = tested on: osteoblasts MG63; assay: Osteoblast proliferation, MTT method; type: cell-based; settings: for effect on MG63 cell proliferation (in words): cocultured 72 h, P<0.05 vs control groups; for Cell proliferation (MTT method), absorbance value under 490 nm: MG63, n = 4, x ± s
Description: MTT method is used to evaluate the effects of the drug on the activity of proliferation of osteoblasts MG63, wherein each well of 96-well plate is added with fresh MTT (5 mg/mL) 100 μL, incubated under 37° C. for 4 h, and vibrated every a period of time, then the supernatant is removed, and each well is added with 200 μL DMSO (DMSO, Sigma corp.), and vibrated on micro-oscillator for 10 min, and equivalent amount of liquid is transferred to an new plate, and the absorbance value under 490 nm is measured, referring to table 1.

[3] = relative to Etidronate; cited from earlier work
[4] = tested on: osteoclasts; assay: Osteoclast cell formation, counting of TRAP staining positive cells; type: cell-based, Japanese White Rabbit; settings: for OC cell formation, TRAP staining positive cells counted: n = 6, x ± s
Description: (§1) The osteoclasts is cultured using a modified Chambers method, the new-born Japanese White Rabbit (1 week-age, provided by Experimental Animal Center of West China Medical Center of Sichuan University) is sacrificed by neck dislocation, and dipped in 75% ethanol for 5 min, long bones are taken out under sterile condition, and soft tissue, periosteum as well as osteoepiphysis on the bone surface are removed in D-Hanks balanced salt solution, clean the bone shaft with α-MEM 2 times, and then cut off the long bone longitudinally in α-MEM full media (containing 15% fetal calf serum, penicillin 100 U/mL, streptomycin […], 25 m MHEPES, pH 7.0-7.2), scrape the medullar cavity of the bone gently until it is clean, and use a pipette (5 mL syringe, 25 G syringe needle) to rinse the medullar cavity repeatedly with culture media, and then the rinse solution is collected and filtered with cell strainer to remove bone fragment, and centrifuged at 1000 rpm for 5 min, the precipitate is suspended by 10 mL α-MEM, a hematocytometer is used for cell counting, the cell density in suspension is adjusted to 1×10^7/mL, and inoculate the cells in 6-well plates, and co-cultured with glass slide or bone slice, after 60 min the culture media was replaced with α-MEM induction culture media (containing 15% fetal bovine serum, 10 nM 1, 25-(OH)2VitD3, penicillin 100 U/mL, streptomycin 100 μg/mL, 25 mM HEPES, pH 7.0-7.2), the culture media is replaced every 3 days.
Each group of osteoclasts is performed with tartrate-resistant acid phosphatase (TRAP) staining, observed in optical microscope, and the TRAP staining positive cells are counted.

[5] = tested on: osteoclasts; assay: Osteoclastic absorption, resorption pit size on bone slices; type: cell-based, Japanese White Rabbit; settings: for formation and size of resorption pit of the osteoclast: 5 days' culture, n = 6, x ± s
Description: as §1

O=c1c2ccccc2[se]n1-c1ccc(CCC(P(=O)(O)O)P(=O)(O)O)cc1 [SC-13, 4-(3-carbonylbenzo[d][1,2]selenazole-2(3H))-phenylethyl-methylenediphosphonic acid]
calcium deposition of osteoblasts (in words) [1]: increases the calcium deposition of osteoblasts obviously

O=c1c2ccccc2[se]n1-c1ccc(CCC(O)(P(=O)(O)O)P(=O)(O)O)cc1 [SC-14, 4-(3-carbonylbenzo[d][1,2]selenazole-2(3H))-phenylethyl-1-hydroxyl-methylene diphosphonic acid]
calcium deposition of osteoblasts (in words) [1]: increases the calcium deposition of osteoblasts obviously

O=c1c2ccccc2[se]n1Cc1ccc(CC(P(=O)(O)O)P(=O)(O)O)cc1 [SC-11, 4-(2-methylbenzo[d][1,2]selenazole-3 (2H)-ketone)-benzyl-methylene diphosphonic acid]
calcium deposition of osteoblasts (in words) [1]: increases the calcium deposition of osteoblasts obviously

O=c1c2ccccc2[se]n1-c1ccc(CC(P(=O)(O)O)P(=O)(O)O)cc1 [SC-1, 4-(3-carbonylbenzo[d][1,2]selenazole-2(3H))-benzyl-methylene diphosphonic acid]
effect on MG63 cell proliferation (in words) ([2]; 10^−9 mol/L): enhance MG63 cell proliferation
calcium deposition of osteoblasts (in words) [1]: increases the calcium deposition of osteoblasts obviously

O=P(O)(O)C(O)(Cn1ccnc1)P(=O)(O)O [Zoledronate]
bone affinity, times stronger than Etidronate [3]: over 10000 times

4-(3-carbonylcyclohexano[d][1,2]selenazole-2(3H))-benzyl-1-hydroxyl-methylenediphosphonic acid [SC-8]
Cell proliferation (MTT method), absorbance value under 490 nm ([2]; 10^−5 mol/L, 24 h): 0.376 ± 0.009
Cell proliferation (MTT method), absorbance value under 490 nm ([2]; 10^−5 mol/L, 48 h): 0.412 ± 0.007
Cell proliferation (MTT method), absorbance value under 490 nm ([2]; 10^−5 mol/L, 72 h): 0.342 ± 0.008
Cell proliferation (MTT method), absorbance value under 490 nm ([2]; 10^−7 mol/L, 24 h): 0.373 ± 0.010
Cell proliferation (MTT method), absorbance value under 490 nm ([2]; 10^−7 mol/L, 48 h): 0.439 ± 0.012
Cell proliferation (MTT method), absorbance value under 490 nm ([2]; 10^−7 mol/L, 72 h): 0.709 ± 0.010
Cell proliferation (MTT method), absorbance value under 490 nm ([2]; 10^−9 mol/L, 24 h): 0.355 ± 0.009
Cell proliferation (MTT method), absorbance value under 490 nm ([2]; 10^−9 mol/L, 48 h): 0.421 ± 0.008
Cell proliferation (MTT method), absorbance value under 490 nm ([2]; 10^−9 mol/L, 72 h): 0.773 ± 0.013
effect on MG63 cell proliferation (in words) ([2]; 10^−9 mol/L): enhance MG63 cell proliferation
ARS concentration ([1]; 10^−5 mol/L): 309 ± 13 µg/mL
calcium nodule size ([1]; 10^−5 mol/L): 1.32 ± 0.11 mm^2
ARS concentration ([1]; 10^−7 mol/L): 354 ± 23 µg/mL
calcium nodule size ([1]; 10^−7 mol/L): 1.66 ± 0.16 mm^2
ARS concentration ([1]; 10^−9 mol/L): 395 ± 17 µg/mL
calcium nodule size ([1]; 10^−9 mol/L): 1.96 ± 0.19* mm^2
OC cell formation, TRAP staining positive cells counted ([4]; 10^−5 mol/L, 3 d): 6 ± 2
OC cell formation, TRAP staining positive cells counted ([4]; 10^−5 mol/L, 5 d): 9 ± 2
OC cell formation, TRAP staining positive cells counted ([4]; 10^−7 mol/L, 3 d): 10 ± 2
OC cell formation, TRAP staining positive cells counted ([4]; 10^−7 mol/L, 5 d): 15 ± 4
OC cell formation, TRAP staining positive cells counted ([4]; 10^−9 mol/L, 3 d): 12 ± 3
OC cell formation, TRAP staining positive cells counted ([4]; 10^−9 mol/L, 5 d): 21 ± 6
formation and size of resorption pit of the osteoclast ([5]; 10^−5 mol/L): 12.23 ± 3.06
formation and size of resorption pit of the osteoclast ([5]; 10^−7 mol/L): 64.45 ± 8.77
formation and size of resorption pit of the osteoclast ([5]; 10^−9 mol/L): 118.25 ± 14.73

NCCCC(O)(P(=O)(O)O)P(=O)(O)O [Alen, alendronate sodium, reference compound]
cell proliferation activity (in words) ([2]; 10^−5, 10^−7 mol/L for 72 h, P<0.01 vs control groups): cell proliferation activity is inhibited in different degrees
influence on proliferation of MG63 cells (in words) ([2]; range of concentrations, within 48 h): no influence on proliferation of MG63 cells
calcium deposition of osteoblasts (in words) [1]: not found that Alen group of low concentration can enhance the calcium deposition of osteoblasts
formation of osteoclasts compared with blank (in words) ([4]; all concentrations): can inhibit the formation of osteoclasts
resorption pits size compared with blank (in words) ([5]; p<0.01): decrease obviously

O=c1c2cc(Cl)ccc2[se]n1-c1ccc(CC(P(=O)(O)O)P(=O)(O)O)cc1 [SC-9, 4-(3-carbonyl-5-chlorobenzo[d][1,2]selenazole-2(3H))-benzyl-methylene diphosphonic acid]
calcium deposition of osteoblasts (in words) [1]: increases the calcium deposition of osteoblasts obviously

O=c1c2cc(Cl)ccc2[se]n1-c1ccc(CC(O)(P(=O)(O)O)P(=O)(O)O)cc1 [SC-10, 4-(3-carbonyl-5-chlorobenzo[d][1,2]selenazole-2(3H))-benzyl-1-hydroxyl-methylene diphosphonic acid]
calcium deposition of osteoblasts (in words) [1]: increases the calcium deposition of osteoblasts obviously

O=c1c2ccccc2sn1-c1ccc(CC(P(=O)(O)O)P(=O)(O)O)cc1 [SC-15, 4-(3-carbonylbenzo[d][1,2]sulfonazole-2(3H))-benzyl-methylene diphosphonic acid]
calcium deposition of osteoblasts (in words) [1]: increases the calcium deposition of osteoblasts obviously

O=c1c2ccccc2[se]n1-c1ccc(CC(O)(P(=O)(O)O)P(=O)(O)O)cc1 [SC-2, 4-(3-carbonylbenzo[d][1,2]selenazole-2(3H))-benzyl-methylene-1-hydroxyl-methylene diphosphonic acid]
effect on MG63 cell proliferation (in words) ([2]; 10^−9 mol/L): enhance MG63 cell proliferation
calcium deposition of osteoblasts (in words) [1]: increases the calcium deposition of osteoblasts obviously

O=c1c2ccccc2[se]n1Cc1ccc(CC(O)(P(=O)(O)O)P(=O)(O)O)cc1 [SC-12, 4-(2-methylbenzo[d][1,2]selenazole-3 (2H)-ketone)-benzyl-1-hydroxyl-methylene diphosphonic acid]
calcium deposition of osteoblasts (in words) [1]: increases the calcium deposition of osteoblasts obviously
